# Experimental data: US20250288704A1, “CXCR4-LIGANDS FOR DIAGNOSTIC AND THERAPEUTIC USE AND PRECURSORS THEREOF” (priority 2021, published 2025)
# Non-standard residues stand in square brackets, D forms with d. Residues, ends and D or L forms follow the SMILES beside them. Groups on a side chain read outwards from the residue. *: point of attachment. DOTA = O=C(O)CN1CCN(CC(=O)O)CCN(CC(=O)*)CCN(CC(=O)O)CC1; dTyr(3-I) = N[C@H](Cc1ccc(O)c(I)c1)C(=O)O; 2Nal = N[C@@H](Cc1ccc2ccccc2c1)C(=O)O; dNMeOrn = CN[C@H](CCCN)C(=O)O; 4Amb = NCc1ccc(C(=O)O)cc1; 4Abz = Nc1ccc(C(=O)O)cc1; dDap = NC[C@@H](N)C(=O)O
# What was measured:
# CXCR4 = CXCR4 (Homo sapiens, UniProt P61073); test: Determination of IC50: competition with 125I-Fc-131 on CXCR4-positive Jurkat cells; type: binding; parameters: CXCR4-positive Jurkat T lymphocyte cells were grown in Gibco's RPMI 1640 GlutaMAX medium; endogenous in cells; host or cells: Jurkat T lymphocyte cells (whole cells in suspension, 400.000 per tube); settings: unlabeled or cold (natGa/natLu) compound vs 125I-Fc-131, Jurkat cells; read-out: IC50;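 further: test compound at 10^−5 to 10^−11 M competed for 2 h at 8 °C with the radioligand on 400,000 cells per well, bound versus free activity measured by γ-counting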
# CXCR4, sequence (P61073 whole entry): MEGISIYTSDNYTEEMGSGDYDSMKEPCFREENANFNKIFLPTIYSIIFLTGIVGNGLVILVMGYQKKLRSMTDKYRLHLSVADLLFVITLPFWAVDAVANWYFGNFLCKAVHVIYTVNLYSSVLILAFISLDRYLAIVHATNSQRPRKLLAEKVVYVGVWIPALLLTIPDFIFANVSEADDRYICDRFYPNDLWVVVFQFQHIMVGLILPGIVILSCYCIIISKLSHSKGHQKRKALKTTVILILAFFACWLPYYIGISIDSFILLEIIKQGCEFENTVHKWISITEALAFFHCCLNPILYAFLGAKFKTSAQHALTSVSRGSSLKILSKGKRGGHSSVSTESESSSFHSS
# Protocol: For in vitro experiments, cells were counted in a hemocytometer using trypan blue as contrast agent. The cell suspension was centrifuged, and the pellet resuspended in HBSS (+1 wt % BSA) to a concentration of 2 mio cells/mL. […] 200 μL of cell suspension (400.000 cells per well) were added to obtain a final peptide concentration range of 10^−5-10^−11 M. The tubes were cooled for 2 h at 8° C. to prevent internalization. The experiment was stopped by removal of the supernatant. 200 μL HBSS were added onto the cells, the suspension centrifuged, and the supernatant pooled with the respective first fractions. This step was repeated once more before the tubes containing the supernatants and the ones containing the cell pellets were subjected to activity measurement in the γ-counter.
# [1] = Biodistribution in Jurkat tumor-bearing CB-17 SCID mice; type: in vivo; parameters: tissue to tissue ratio at 1 h / tissue to tissue ratio / tissue to tissue ratio at 48 h: reference not given here; settings: CB-17 SCID, mouse, in vivo, iv, total radioactivity
# Summary of the method: (§1)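 Radioligand (125I, 177Lu, 99mTc, 18F or 68Ga label; roughly 0.5-20 MBq, 0.02-0.20 nmol) was injected intravenously via tail vein. Hosts were CB17-SCID mice with subcutaneous Jurkat tumors of 5-8 mm, 4-10 weeks post-inoculation. Dissected organs were weighed and counted in a γ-counter.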
# [2] = Octanol/PBS partition coefficient (logD7.4); type: physicochemical; settings: n-octanol/PBS pH 7.4, radiolabeled compound
# Protocol: The tubes were vortexed at maximum speed for 3 min to ensure equilibrium before centrifugation at 15.000×g for 5 min on a Biofuge 15 from Heraeus Holding GmbH (Osterode, Germany). An aliquot of 100 μL of each fraction was measured in the γ-counter and the log D7.4 calculated as follows: […]
# [3] = test system: CXCR4-expressing Chem_1 cells; test: Determination of internalization, dual tracer with 125I-Fc-131; type: cell-based; settings: for Cell-bound [%] / Internalized [%]: of total cellular activity
# Summary of the method: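 Receptor blockade used AMD3100 (1 mM stock) versus medium-treated wells, triplicate per time point, in Chem_1 cells cultured at 37 °C in DMEM-F12/10% FBS. Activity of supernatant, surface-bound and internalized (1 M NaOH) fractions measured by γ-counter, corrected for non-specific uptake and normalised to standard ligand.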
# [4] = test system: Jurkat tumor-bearing CB-17 SCID mice; test: Biodistribution in Jurkat tumor-bearing CB-17 SCID mice; type: in vivo; parameters: tissue to tissue ratio at 1 h / tissue to tissue ratio / tissue to tissue ratio at 48 h: reference not given here; settings: mouse, in vivo
# Summary of the method: as §1
smiles,measurement,setting,value
C[C@@H](NC(=O)[C@@H](CCCNC(=N)N)NC(=O)[C@@H](CN)NC(=O)CN1CCN(CC(=O)O)CCN(CC(=O)O)CCN(CC(=O)O)CC1)C(=O)NCc1ccc(C(=O)NCCC[C@@H]2C(=O)N[C@@H](CCCNC(=N)N)C(=O)N[C@@H](Cc3ccc4ccccc4c3)C(=O)NCC(=O)N[C@H](Cc3ccc(O)c(I)c3)C(=O)N2C)cc1 [CXCR4-DOTA-2 [Lu]] (cyclo([dTyr(3-I)][dNMeOrn]([4Amb-dA-dR-dDap-DOTA])R[2Nal]G)),IC50,CXCR4,6.47 ± 1.75 nM
same,tissue uptake at 1 h,"[1]; female, % iD/g Blood",1.67 %ID/g
same,tissue uptake at 1 h,"[1]; female, % iD/g Bone",0.9 %ID/g
same,tissue uptake at 1 h,"[1]; female, % iD/g Heart",1.04 %ID/g
same,tissue uptake at 1 h,"[1]; female, % iD/g Intestine",0.9 %ID/g
same,tissue uptake at 1 h,"[1]; female, % iD/g Kidney",15.7 %ID/g
same,tissue uptake at 1 h,"[1]; female, % iD/g Liver",17.7 %ID/g
same,tissue uptake at 1 h,"[1]; female, % iD/g Lung",2.94 %ID/g
same,tissue uptake at 1 h,"[1]; female, % iD/g Muscle",0.3 %ID/g
same,tissue uptake at 1 h,"[1]; female, % iD/g Pancreas",0.53 %ID/g
same,tissue uptake at 1 h,"[1]; female, % iD/g Spleen",3.62 %ID/g
same,tissue uptake at 1 h,"[1]; female, % iD/g Stomach",1.41 %ID/g
same,tissue uptake at 1 h,"[1]; female, % iD/g Tumor",5.27 %ID/g
same,logD7.4,[2],−2.20 ± 0.06 (8)
same,Internalized in relation to 125I-Fc-131 [%],[3]; 15 min,247 ± 26.2%
same,Cell-bound [%],[3]; 15 min,8.31 ± 1.20%
same,Internalized [%],[3]; 15 min,11.2 ± 1.93%
same,Internalized in relation to 125I-Fc-131 [%],[3]; 30 min,347 ± 36.1%
same,Cell-bound [%],[3]; 30 min,13.5 ± 1.38%
same,Internalized [%],[3]; 30 min,17.8 ± 2.02%
same,Internalized in relation to 125I-Fc-131 [%],[3]; 60 min,368 ± 36.9%
same,Cell-bound [%],[3]; 60 min,16.4 ± 1.31%
same,Internalized [%],[3]; 60 min,21.8 ± 1.10%
same,Internalized in relation to 125I-Fc-131 [%],[3]; 120 min,456 ± 76.3%
same,Internalization [% Fc-131] 2 h,"[3]; 2 h, 177Lu-labeled",456 % Fc-131
same,Cell-bound [%],[3]; 120 min,22.2 ± 2.68%
same,Internalized [%],[3]; 120 min,27.3 ± 3.62%
C[C@@H](NC(=O)[C@@H](CCCNC(=N)N)NC(=O)[C@@H](CN)NC(=O)CN1CCN(CC(=O)O)CCN(CC(=O)O)CCN(CC(=O)O)CC1)C(=O)Nc1ccc(C(=O)NCCC[C@@H]2C(=O)N[C@@H](CCCNC(=N)N)C(=O)N[C@@H](Cc3ccc4ccccc4c3)C(=O)NCC(=O)N[C@H](Cc3ccc(O)cc3)C(=O)N2C)cc1 [CXCR4-DOTA-3 [Lu]] (cyclo([dY][dNMeOrn]([4Abz-dA-dR-dDap-DOTA])R[2Nal]G)),Calculated tumor retention 6 h compared to the 1 h-value,[4],82%
same,Calculated tumor retention 48 h compared to the 1 h-value,[4],65%
same,tissue to tissue ratio,[1],229
same,tissue to tissue ratio at 1 h,[1],9.25
same,tissue to tissue ratio at 48 h,[1],1360
same,tissue uptake at 1 h,[1]; Tumor activity 1 h p.i.,8.42 %ID/g
same,tissue uptake at 6 h,[1]; Tumor activity 6 h p.i.,6.88 %ID/g
same,tissue uptake at 48 h,[1]; Tumor activity 48 h p.i.,5.44 %ID/g
same,tissue uptake at 1 h,"[1]; female, % iD/g Blood",0.91 %ID/g
same,tissue uptake at 6 h,"[1]; female, % iD/g Blood",0.03 %ID/g
same,tissue uptake at 1 h,"[1]; female, % iD/g Bone",0.55 %ID/g
same,tissue uptake at 6 h,"[1]; female, % iD/g Bone",0.28 %ID/g
same,tissue uptake at 48 h,"[1]; female, % iD/g Bone",0.18 %ID/g
same,tissue uptake at 1 h,"[1]; female, % iD/g Heart",0.53 %ID/g
same,tissue uptake at 6 h,"[1]; female, % iD/g Heart",0.09 %ID/g
same,tissue uptake at 48 h,"[1]; female, % iD/g Heart",0.06 %ID/g
same,tissue uptake at 1 h,"[1]; female, % iD/g Intestine",0.44 %ID/g
same,tissue uptake at 6 h,"[1]; female, % iD/g Intestine",0.44 %ID/g
same,tissue uptake at 48 h,"[1]; female, % iD/g Intestine",0.11 %ID/g
same,tissue uptake at 1 h,"[1]; female, % iD/g Kidney",14.1 %ID/g
same,tissue uptake at 6 h,"[1]; female, % iD/g Kidney",13.4 %ID/g
same,tissue uptake at 48 h,"[1]; female, % iD/g Kidney",4.47 %ID/g
same,tissue uptake at 1 h,"[1]; female, % iD/g Liver",8.48 %ID/g
same,tissue uptake at 6 h,"[1]; female, % iD/g Liver",9.43 %ID/g
same,tissue uptake at 48 h,"[1]; female, % iD/g Liver",8.84 %ID/g
same,tissue uptake at 1 h,"[1]; female, % iD/g Lung",1.67 %ID/g
same,tissue uptake at 6 h,"[1]; female, % iD/g Lung",0.25 %ID/g
same,tissue uptake at 48 h,"[1]; female, % iD/g Lung",0.14 %ID/g
same,tissue uptake at 1 h,"[1]; female, % iD/g Muscle",0.18 %ID/g
same,tissue uptake at 6 h,"[1]; female, % iD/g Muscle",0.03 %ID/g
same,tissue uptake at 48 h,"[1]; female, % iD/g Muscle",0.01 %ID/g
same,tissue uptake at 1 h,"[1]; female, % iD/g Pancreas",0.28 %ID/g
same,tissue uptake at 6 h,"[1]; female, % iD/g Pancreas",0.09 %ID/g
same,tissue uptake at 48 h,"[1]; female, % iD/g Pancreas",0.05 %ID/g
same,tissue uptake at 1 h,"[1]; female, % iD/g Spleen",1.55 %ID/g
same,tissue uptake at 6 h,"[1]; female, % iD/g Spleen",1.38 %ID/g
same,tissue uptake at 48 h,"[1]; female, % iD/g Spleen",1.32 %ID/g
same,tissue uptake at 1 h,"[1]; female, % iD/g Stomach",0.94 %ID/g
same,tissue uptake at 6 h,"[1]; female, % iD/g Stomach",0.25 %ID/g
same,tissue uptake at 48 h,"[1]; female, % iD/g Stomach",0.07 %ID/g
same,tissue uptake at 1 h,"[1]; female, % iD/g Tumor",8.42 %ID/g
same,tissue uptake at 6 h,"[1]; female, % iD/g Tumor",6.88 %ID/g
same,tissue uptake at 48 h,"[1]; female, % iD/g Tumor",5.44 %ID/g
